In brackets after ≈: the same amount, converted by molar mass. Read-outs that look alike come from different tables or passages of the source.
Tests used:
[1] = test system: E. coli BW25113 ΔtolC gyrR isolate GyrA His45Tyr; assay: MIC against gyramide-resistant mutant; conditions: Escherichia coli, BW25113
[2] = test system: E. coli BW25113 ΔtolC cipR isolate GyrA Asp87Tyr; assay: MIC against ciprofloxacin-resistant mutant; conditions: Escherichia coli, BW25113
[3] = test system: E. coli BW25113 ΔtolC cipR isolate GyrA Ser83Leu; assay: MIC against ciprofloxacin-resistant mutant; conditions: Escherichia coli, BW25113
[4] = test system: E. coli BW25113 ΔtolC gyrR isolate GyrB Thr508Met; assay: MIC against gyramide-resistant mutant; conditions: Escherichia coli, BW25113
[5] = test system: E. coli BW25113 ΔtolC cipR isolate GyrA Asp87Gly; assay: MIC against ciprofloxacin-resistant mutant; conditions: Escherichia coli, BW25113
E. coli BW25113 ΔtolC = assay: MIC, microdilution in 96-well plates; conditions: Escherichia coli, BW25113, E. coli BW25113 ΔtolC (parent strain)
[6] = test system: E. coli BW25113 ΔtolC cipR isolate GyrB Ser464Phe; assay: MIC against ciprofloxacin-resistant mutant; conditions: Escherichia coli, BW25113
[7] = test system: E. coli BW25113 ΔtolC gyrR isolate GyrA Phe96Leu; assay: MIC against gyramide-resistant mutant; conditions: Escherichia coli, BW25113
[8] = test system: E. coli BW25113 ΔtolC gyrR isolate GyrA Pro35Thr; assay: MIC against gyramide-resistant mutant; conditions: Escherichia coli, BW25113
[9] = test system: E. coli BW25113 ΔtolC gyrR isolate GyrA Ser97Pro; assay: MIC against gyramide-resistant mutant; conditions: Escherichia coli, BW25113
Shigella flexneri = assay: MIC, 20-strain panel; assay type: cell-based
Outline: (§1)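 Inoculum 1:10000 (LB, log-phase subculture). Triplicate twofold dilutions plus DMSO column. 37° C., shaken, 16-18 h. Lowest non-turbid well = MIC. CLSI method.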

Streptococcus pyogenes = assay: MIC, 20-strain panel; assay type: cell-based; conditions: read-out: MIC
Outline: as §1

Bacillus cereus = assay: MIC, 20-strain panel; assay type: cell-based
Outline: as §1

[10] = test system: Staphylococcus epidermidis; assay: MIC, 20-strain panel; assay type: cell-based; conditions: read-out: MIC
Outline: as §1

E. coli MG1655 = assay: MIC, 20-strain panel; assay type: cell-based; conditions: Escherichia coli, read-out: MIC
Outline: as §1

[11] = test system: Staphylococcus saprophyticus subsp. saprophyticus; assay: MIC, 20-strain panel; assay type: cell-based; conditions: read-out: MIC
Outline: as §1

Enterococcus faecalis = assay: MIC, 20-strain panel; assay type: cell-based; conditions: Table 7, separate set of experiments
Outline: as §1

[12] = test system: Klebsiella pneumoniae subsp. pneumoniae; assay: MIC, 20-strain panel; assay type: cell-based; conditions: read-out: MIC
Outline: as §1

Enterococcus faecium = assay: MIC, 20-strain panel; assay type: cell-based
Outline: as §1

Streptococcus agalactiae = assay: MIC, 20-strain panel; assay type: cell-based; conditions: read-out: MIC
Outline: as §1

[13] = test system: Salmonella enterica subsp. enterica typhimurium; assay: MIC, 20-strain panel; assay type: cell-based
Outline: as §1

[14] = test system: Morganella morganii subsp. morganii; assay: MIC, 20-strain panel; assay type: cell-based; conditions: Morganella morganii subsp. morganii; Table 7, separate set of experiments; read-out: MIC
Outline: as §1

Bacillus subtilis 168 = assay: MIC, 20-strain panel; assay type: cell-based
Outline: as §1

[15] = test system: Staphylococcus aureus subsp. aureus; assay: MIC, 20-strain panel; assay type: cell-based; conditions: read-out: MIC
Outline: as §1

E. coli JW5503 (deltolC) = assay: MIC, 20-strain panel; assay type: cell-based; conditions: Escherichia coli
Outline: as §1

Enterobacter aerogenes = assay: MIC, microdilution in 96-well plates; assay type: cell-based; conditions: Klebsiella aerogenes, Enterobacter aerogenes; Table 7, separate set of experiments; read-out: MIC
Outline: as §1

Acinetobacter baumannii = assay: MIC, microdilution in 96-well plates; assay type: cell-based; conditions: Table 7, separate set of experiments, read-out: MIC
Outline: as §1

Pseudomonas aeruginosa = assay: MIC, microdilution in 96-well plates; assay type: cell-based; conditions: Table 7, separate set of experiments, read-out: MIC
Outline: as §1

E. coli BW25113 = assay: MIC, microdilution in 96-well plates; assay type: cell-based; conditions: Escherichia coli, read-out: MIC
Outline: as §1

Edwardsiella tarda = assay: MIC, microdilution in 96-well plates; assay type: cell-based; conditions: read-out: MIC
Outline: as §1

[16] = Table 7, separate set of experiments
[17] = 20-strain screen of Table 6, read-out: MIC

Q: What does the source list for O=C(O)c1cn(C2CC2)c2cc(N3CCNCC3)c(F)cc2c1=O [Ciprofloxacin, ciprofloxacin]?
A: MIC [1]: 0.01 µM (≈ 3.31 ng/mL); MIC [2]: 0.1 µM (≈ 33.1 ng/mL); MIC [3]: 0.2 µM (≈ 66.3 ng/mL); MIC [4]: 0.01 µM (≈ 3.31 ng/mL); MIC [5]: 0.05 µM (≈ 16.6 ng/mL); MIC (E. coli BW25113 ΔtolC; Table 4): 0.005 µM (≈ 1.66 ng/mL); MIC (E. coli BW25113 ΔtolC; Table 5): 0.00625 µM (≈ 2.07 ng/mL); MIC [6]: 0.05 µM (≈ 16.6 ng/mL); MIC [7]: 0.01 µM (≈ 3.31 ng/mL); MIC [8]: 0.005 µM (≈ 1.66 ng/mL); MIC [9]: 0.005 µM (≈ 1.66 ng/mL)

Q: What does the source list for Cc1ccc(C(F)(F)F)cc1S(=O)(=O)N[C@@H]1CCN(Cc2ccc(OC3CC3)cc2)C1 [Compound 91]?
A: MIC (Shigella flexneri; G: Shigella flexneri): 8 µg/mL (≈ 17.6 µM); MIC (Shigella flexneri; [16]): 4 µg/mL (≈ 8.8 µM); MIC (Streptococcus pyogenes; L: Streptococcus pyogenes): 4 µg/mL (≈ 8.8 µM); MIC (Streptococcus pyogenes; [16]): 4 µg/mL (≈ 8.8 µM); MIC (Bacillus cereus; [17]): 8 µg/mL (≈ 17.6 µM); MIC (Bacillus cereus; [16]): 8 µg/mL (≈ 17.6 µM); MIC ([10]; J: Staphylococcus epidermidis): 2 µg/mL (≈ 4.4 µM); MIC [10, 16]: 8 µg/mL (≈ 17.6 µM); MIC (E. coli MG1655; MG1655, A: E. coli MG1655): 4 µg/mL (≈ 8.8 µM); MIC (E. coli MG1655; MG1655, E. coli MG1655, Table 7, separate set of experiments): 8 µg/mL (≈ 17.6 µM); MIC ([11]; I: Staphylococcus saprophyticus subsp. saprophyticus): 8 µg/mL (≈ 17.6 µM); MIC ([11]; Staphylococcus saprophyticus subsp. saprophyticus, Table 7, separate set of experiments): 8 µg/mL (≈ 17.6 µM); MIC (Enterococcus faecalis): 16 µg/mL (≈ 35.2 µM); MIC ([12]; E: Klebsiella pneumoniae subsp. pneumoniae): > 8 µg/mL; MIC ([12]; Klebsiella pneumoniae subsp. pneumoniae, Table 7, separate set of experiments): > 16 µg/mL; MIC (Enterococcus faecium; [17]): 8 µg/mL (≈ 17.6 µM); MIC (Enterococcus faecium; [16]): 8 µg/mL (≈ 17.6 µM); MIC (Streptococcus agalactiae; K: Streptococcus agalactiae): 8 µg/mL (≈ 17.6 µM); MIC (Streptococcus agalactiae; [16]): 8 µg/mL (≈ 17.6 µM); MIC ([13]; F: Salmonella enterica subsp. enterica Typhimurium): 4 µg/mL (≈ 8.8 µM); MIC ([13]; Salmonella enterica subsp. enterica typhimurium, Table 7, separate set of experiments): 4 µg/mL (≈ 8.8 µM); MIC [14]: > 16 µg/mL; MIC (Bacillus subtilis 168; [17]): 8 µg/mL (≈ 17.6 µM); MIC (Bacillus subtilis 168; [16]): 8 µg/mL (≈ 17.6 µM); MIC ([15]; H: Staphylococcus aureus subsp. aureus): 4 µg/mL (≈ 8.8 µM); MIC ([15]; Staphylococcus aureus subsp. aureus, Table 7, separate set of experiments): 8 µg/mL (≈ 17.6 µM); MIC (E. coli JW5503 (deltolC); C: E. coli JW5503 (deltolC)): < 0.0625 µg/mL; MIC (E. coli JW5503 (deltolC); E. coli JW5503 (deltolC), Table 7, separate set of experiments): < 0.0078 µg/mL; MIC (Enterobacter aerogenes): > 16 µg/mL; MIC (Acinetobacter baumannii): > 16 µg/mL; MIC (Pseudomonas aeruginosa): > 16 µg/mL; MIC (E. coli BW25113; BW25113, B: E. coli BW25113): 8 µg/mL (≈ 17.6 µM); MIC (E. coli BW25113; BW25113, E. coli BW25113, Table 7, separate set of experiments): 8 µg/mL (≈ 17.6 µM); MIC (Edwardsiella tarda; D: Edwardsiella tarda): 8 µg/mL (≈ 17.6 µM); MIC (Edwardsiella tarda; [16]): 8 µg/mL (≈ 17.6 µM)

Source: US10253039B2, “Inhibitors of bacterial DNA gyrase with efficacy against gram-negative bacteria” (priority 2014, dated 2019)
